Source: patent US7960562B2, “Propane-1,3-dione derivative or salt thereof” (Astellas Pharma Inc., priority 2005, dated 2011)

Each compound was assayed against T1, human GnRH receptor (Homo sapiens, UniProt P30968) (assay: Test for GnRH receptor antagonistic effect (inhibition of 125I-D-Trp6-LHRH binding)). Details: Table 1; read-out: IC50 (concentration that inhibits 50% of the binding of 125I-D-Trp6-LHRH to a human GnRH receptor).
T1 sequence (P30968 1-328): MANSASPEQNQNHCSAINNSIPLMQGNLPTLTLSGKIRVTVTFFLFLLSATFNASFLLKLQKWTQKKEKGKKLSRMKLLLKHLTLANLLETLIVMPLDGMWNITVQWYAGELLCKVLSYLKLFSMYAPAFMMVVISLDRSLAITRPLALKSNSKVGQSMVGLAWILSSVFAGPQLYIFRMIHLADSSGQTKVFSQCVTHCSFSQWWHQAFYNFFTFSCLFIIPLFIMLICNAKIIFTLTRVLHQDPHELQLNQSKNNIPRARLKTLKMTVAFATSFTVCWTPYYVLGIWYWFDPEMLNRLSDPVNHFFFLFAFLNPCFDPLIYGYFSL
Protocol: The GnRH receptor antagonistic effects of the compounds of the present invention were evaluated by calculating their concentration that inhibit 50% of the binding of ^125I-D-Trp^6-LHRH to a human GnRH receptor (IC50), according to the description in Patent Reference 1, page 56 “1. Test for GNRH Receptor Antagonistic Effect”.
Accordingly, for confirming the usefulness of “group of —SO2—R^3”, the activities of the compounds of the present invention was compared with those of the comparative compounds having —CO—R^3 group.
Work on `CC(C)(O)C(=N)NS(=O)(=O)c1cccc(C(=O)C(C(=O)c2cccc(F)c2)=C2Nc3ccccc3N2)c1` [Example 211] yielded an IC50 of 0.094 nM.
`CC(=N)NS(=O)(=O)c1cccc(C(=O)C(C(=O)c2cccc(F)c2)=C2Nc3ccccc3N2)c1` [Example 245] gave an IC50 of 0.058 nM.
`CC(C)(O)C(=N)NS(=O)(=O)c1cc(C(=O)C(C(=O)c2cccc(F)c2)=C2Nc3ccccc3N2)ccc1F` [Example 662] showed an IC50 of 0.24 nM.
`C[C@@H](O)C(=N)NS(=O)(=O)c1cc(C(=O)C(C(=O)c2cccc(F)c2)=C2Nc3ccccc3N2)ccc1F` [Example 696, (2R)-N-({5-[2-(1,3-dihydro-2H-benzimidazol-2-ylidene)-3-(3-fluorophenyl)-3-oxopropanoyl]-2-fluorophenyl}sulfonyl)-2-hydroxypropanimidamide] gave an IC50 of 0.18 nM.

Same assay, conditions: Table 2; read-out: IC50 (GnRH receptor binding), SO2-R3 compounds versus comparative CO-R3 compounds
With `CC(=O)NC(N)=NC(=O)c1cccc(C(=O)C(C(=O)c2cc(F)cc(F)c2)=C2Nc3ccccc3N2)c1` [Comparative Example 3, reference compound] the IC50 was 16 nM.
Work on `CC(=N)NS(=O)(=O)c1cccc(C(=O)C(C(=O)c2cc(F)cc(F)c2)=C2Nc3ccccc3N2)c1` [Example 73] yielded an IC50 of 0.053 nM.
`CC(=O)NC(N)=NS(=O)(=O)c1cccc(C(=O)C(C(=O)c2cc(F)cc(F)c2)=C2Nc3ccccc3N2)c1` [Example 74] showed an IC50 of 0.56 nM.
`O=C(C(C(=O)c1cccc(S(=O)(=O)NCCO)c1)=C1Nc2ccccc2N1)c1cc(F)cc(F)c1` [Example 77] showed an IC50 of 0.066 nM.
Work on `NC(N)=NS(=O)(=O)c1cccc(C(=O)C(C(=O)c2cc(F)cc(F)c2)=C2Nc3ccccc3N2)c1` [Example 89] yielded an IC50 of 0.022 nM.
`CC(=N)NC(=O)c1cccc(C(=O)C(C(=O)c2cc(F)cc(F)c2)=C2Nc3ccccc3N2)c1` [compound 1, reference compound] gave an IC50 of 7.1 nM.
Compound `O=C(NCCO)c1cccc(C(=O)C(C(=O)c2cc(F)cc(F)c2)=C2Nc3ccccc3N2)c1` [compound 4, reference compound] has an IC50 of 9.6 nM.
